Measured values: patent US10603345B2, “Pharmaceutical composition for treating respiratory disease” (Kunming Institute of Botany, The Chinese Academy of Sciences, priority 2015, dated 2020)

What was measured:
Format in all cases: in vivo
[1] = tested on: KL-6 in serum of pulmonary fibrosis model mouse; experiment: Effect on KL-6 in serum of pulmonary fibrosis model mouse; conditions: ELISA, bleomycin pulmonary fibrosis mouse, ig 28 d, dose/kg: prednisone acetate 5 mg, Test group 1 50, 2 25, 3 12.5, picrinine 5.0, vallesamine 3.0, scholaricine 3.5, 19-epi-scholaricine 1.0 mg, x ± SD
Description: (§1) Animal source: 30˜35 g male ICR mouse, from laboratory animal department of Kunming Medical University, License No. SCXK (Dian) 2011-0004.
(§2) Method and route: bleomycin was used to induce mouse pulmonary fibrosis, and after intragastrical administration for 28 d at a dose of 20 mL/kg, the animal was sacrificed at the 29th day.
(§3) Group and dose: Sham group, Model group, Positive control group, prednisone acetate (5 mg/kg) group, Test group 1: picrinine, vallesamine, scholaricine and 19-epischolaricine prepared in Example 1.7 were mixed at different ratios by weight (50 mg/kg), Test group 2: the alkaloid composition (25 mg/kg) prepared in Example 1.5, Test group 3: the alkaloid composition (12.5 mg/kg) prepared in Example 1.6, Picrinine group (5.0 mg/kg), Vallesamine group (3.0 mg/kg), Scholaricine group (3.5 mg/kg), and 19-epischolaricine group (1.0 mg/kg).
(§4) Positive control drug: prednisone acetate tablet, Approval number: H33021207, 5 mg/tablet, produced by Zhejiang Xianju Pharmaceutical Co., Ltd., Batch No. 140146.
(§5) Sample preparation: all the samples were prepared by using 0.5% carboxymethylcellulose sodium (0.5% CMC-Na).
Group and dose: in Test group 1, the ratio of picrinine, vallesamine, scholaricine and 19-epischolaricine by weight was 45:38:30:8, and the other groups and doses thereof were as described in Example 12.
Test index: KL-6 in serum was used as index, and was determined by enzyme linked immunosorbent assay.

[2] = tested on: Col-1 in homogenate of pulmonary fibrosis model mouse; experiment: Effect on Col-1 in homogenate of pulmonary fibrosis model mouse; conditions: ELISA, bleomycin pulmonary fibrosis mouse, ig 28 d, dose/kg: prednisone acetate 5 mg, Test group 1 50, 2 25, 3 12.5, picrinine 5.0, vallesamine 3.0, scholaricine 3.5, 19-epi-scholaricine 1.0 mg, x ± SD
Description: as §1, §2, §3, §4, §5
Group and dose: in Test group 1, the ratio of picrinine, vallesamine, scholaricine and 19-epischolaricine by weight was 20:17:17:4, and the other groups and doses thereof were as described in Example 12.
Test index: Col-1 in homogenate was used as index, and was determined by enzyme linked immunosorbent assay.

[3] = tested on: MDA in serum and homogenate of pulmonary fibrosis model mouse; experiment: Effect on MDA in serum and homogenate of pulmonary fibrosis model mouse; conditions: bleomycin pulmonary fibrosis mouse, ig 28 d, dose/kg: prednisone acetate 5 mg, Test group 1 50, 2 25, 3 12.5, picrinine 5.0, vallesamine 3.0, scholaricine 3.5, 19-epi-scholaricine 1.0 mg, x ± SD
Description: as §1, §2, §3, §4, §5
Group and dose: in Test group 1, the ratio of picrinine, vallesamine, scholaricine and 19-epischolaricine by weight was 8:5:5:1, and the other groups and doses thereof were as described in Example 12.
Test index: MDA in serum and homogenate was used as index, and was determined by thiobabituric acid method.

[4] = tested on: WBC count and eosinophil percentage in BALF of asthma model mouse; experiment: Effect on WBC count and eosinophil percentage in BALF of asthma model mouse; conditions: OVA-induced asthma mouse, ig 7 d, dose/kg: dexamethasone 2 mg, Test group 1 50, 2 25, picrinine 5.0, vallesamine 3.0, scholaricine 3.0, 19-epi-scholaricine 3.5 mg, x ± SD
Description: (§6) Animal source: 25˜30 g male ICR mouse, from laboratory animal department of Kunming Medical University, License No. SCXK (Dian) 2011-0004.
(§7) Method and route: ovalbumin (OVA) was used to induce mouse asthma model, and after intragastrical administration for 7 d at a dose of 20 mL/kg, the animal was sacrificed at the eighth day.
(§8) Test group 1: picrinine, vallesamine, scholaricine and 19-epischolaricine prepared in Example 1.7 were homogeneously mixed at different ratios by weight (50 mg/kg), Test group 2: the alkaloid composition prepared in Example 1.4 (25 mg/kg). […]
as §5
Group and dose: in Test group 1, the ratio of picrinine, vallesamine, scholaricine and 19-epischolaricine by weight was 41:45:28:7, and the other groups and doses thereof were as described in Example 11.
Test index: number of white blood cells (WBCs) and number of eosinophil in bronchoalveolar lavage fluid (BALF) were used as index, and were determined by full-automatic hemocytometer.

[5] = tested on: IL-10 in BALF of asthma model mouse; experiment: Effect on IL-10 in BALF of asthma model mouse; conditions: ELISA, ig 7 d, dose/kg: dexamethasone 2.0 mg, Test group 1 50, 2 25, picrinine 5.0, vallesamine 3.0, scholaricine 3.0, 19-epi-scholaricine 3.5 mg, x ± SD
Description: as §6, §7, §8, §5
Group and dose: in Test group 1, the ratio of picrinine, vallesamine, scholaricine and 19-epischolaricine by weight was 18:13:14:3, and the other groups and doses thereof were as described in Example 11.
Test index: IL-10 in BALF was used as index, and was determined by enzyme linked immunosorbent assay.

[6] = tested on: CRP in serum in COPD model mouse; experiment: Effect on CRP in serum in COPD model mouse; conditions: ELISA, ig 7 d, dose/kg: dexamethasone 1 mg, Test group 1 50, 2 25, 3 10, picrinine 10, vallesamine 6, scholaricine 7, 19-epi-scholaricine 2 mg, x ± SD
Description: as §6
Method and route: lipopolysaccharide (LPS) plus smoke exposure was used for 30 days to induce mouse chronic obstructive pulmonary disease model; and after intragastrical administration for 7 d at a dose of 20 mL/kg, the animal was sacrificed at the eighth day.
Picrinine group (10 mg/kg), Vallesamine group (6.0 mg/kg), Scholaricine group (7.0 mg/kg), 19-epischolaricine group (2.0 mg/kg).
as §5
Group and dose: in Test group 1, the ratio of picrinine, vallesamine, scholaricine and 19-epischolaricine by weight was 25:19:20:4, and the other groups and doses thereof were as described in Example 10.
Test index: CRP in serum was used as index, and was determined by enzyme linked immunosorbent assay.

[7] = tested on: SOD in serum and homogenate of pulmonary fibrosis model mouse; experiment: Effect on SOD in serum and homogenate of pulmonary fibrosis model mouse; conditions: bleomycin pulmonary fibrosis mouse, ig 28 d, dose/kg: prednisone acetate 5 mg, Test group 1 50, 2 25, 3 12.5, picrinine 5.0, vallesamine 3.0, scholaricine 3.5, 19-epi-scholaricine 1.0 mg, x ± SD
Description: as §1, §2, §3, §4, §5
Group and dose: in Test group 1, the ratio of picrinine, vallesamine, scholaricine and 19-epischolaricine by weight was 10:7:7:2, and the other groups and doses thereof were as described in Example 12.
Test index: SOD in serum and homogenate was used as index, and was determined by xanthine oxidase method.

`COC(=O)C1=C2Nc3c(O)cccc3[C@@]23CCN2C[C@@H]([C@H](C)O)[C@@H]1C[C@H]23` [19-epi-scholaricine, 19-epischolaricine] was tested, and the KL-6 [1] was 4.10 ± 0.97 U/mg prot, the Col-1 [2] was 6.5 ± 2.2 μg/g prot and the “MDA Homogenate” value ([3]; homogenate) was 22.0 ± 7.4 nmol/mg prot. The “MDA Serum” value ([3]; serum) was 0.66 ± 0.18 nmol/mg prot.

For `C/C=C1/CN2[C@@H]3C[C@@]45c6ccccc6N[C@]4(O3)[C@@H]2C[C@@H]1[C@H]5C(=O)OC` [picrinine], the Eosinophil percentage [4] was 6.18 ± 3.61%, the “Number of WBCs” value [4] was 0.91 ± 0.50 ×10^9/L and the IL-10 [5] was 13.00 ± 3.15 pg/mL. The KL-6 [1] was 3.91 ± 0.60 U/mg prot, the CRP [6] was 23.5 ± 2.2 pg/mL and the “SOD homogenate” value ([7]; homogenate) was 53.2 ± 8.9 U/mg prot. The “SOD Serum” value ([7]; serum) was 17.2 ± 5.1 U/mg prot.

In the case of `C/C=C1/CN2CC[C@@H]1[C@@](CO)(C(=O)OC)c1[nH]c3ccccc3c1C2` [vallesamine], the Eosinophil percentage [4] is reported as 6.48 ± 2.84%, the “Number of WBCs” value [4] is reported as 0.73 ± 0.35 ×10^9/L and the IL-10 [5] is reported as 14.83 ± 3.49 pg/mL. It also gave a CRP [6] of 23.8 ± 1.9 pg/mL and a Col-1 [2] of 6.3 ± 2.7 μg/g prot.
